Like-named read-outs stand apart in the source and are kept apart here.
Assays:
[1] = system: A549 human lung adenocarcinoma cells; experiment: MTT test, cytotoxicity on A549 cells; type: cell-based; conditions: triplicate, read-out: IC50 A549 cell line
Experimental: (§1) A549 and L929 cell lines were purchased from American Type Culture Collection (Manassas, VA, USA). Cells were cultured, and drug treatments were performed as previously explained.[46]
(§2) MTT assay was conducted as previously described[47] with slight modifications.[48] Cisplatin was used as a positive control. The assay was performed in triplicate. Half-maximal inhibitory concentration (IC50) data (μM) were expressed as mean ± SD.

Akt = Akt Colorimetric In-Cell ELISA, Akt inhibition in A549 cells; type: cell-based, human; conditions: 24 h; for IC50: A549 cell line, mean ± SD, triplicate, read-out: Akt inhibitory effect IC50
Experimental: The assay was performed in triplicate. IC50 data (μM) were expressed as mean ± SD.

A549 cells = experiment: Annexin V FITC/PI flow cytometric analysis of apoptosis; conditions: 24 h, each agent at its IC50 (3a 91.35, 3e 176.23, 3g 46.60, 3i 83.59, cisplatin 23.89 μM)
[2] = system: L929 mouse embryonic fibroblast cells; experiment: MTT test, cytotoxicity on L929 cells; type: cell-based; conditions: mean ± SD, triplicate, read-out: IC50 L929 cell line
Experimental: as §1, §2

N.N.[Cl][Pt][Cl] [Cisplatin, reference compound]
IC50 ([1]; mean ± SD): 23.9 ± 2.71 µM
IC50 (Akt): 8.09 ± 0.63 µM
early apoptosis (%) (A549 cells): 3.61%
late apoptosis (%) (A549 cells): 3.14%
necrosis (%) (A549 cells): 0.98%

NNC(=O)CSc1nc2cc(Cl)ccc2o1 [Compound 2, 2-[(5-Chlorobenzoxazol-2-yl)thio]acetohydrazide]
IC50 ([1]; Homo sapiens, A549, mean ± SD): > 500 µM
IC50 [2]: > 500 µM
melting point: 159 to 161 °C

CN(C)c1ccc(C=NNC(=O)CSc2nc3cc(Cl)ccc3o2)cc1 [Compound 3a, N′-(4-Dimethylaminobenzylidene)-2-[(5-chlorobenzoxazol-2-yl)thio]acetohydrazide]
IC50 ([1]; Homo sapiens, A549, mean ± SD): 91.4 ± 21.9 µM
IC50 [2]: > 500 µM
melting point: 197 to 199 °C
Akt inhibition (Akt; A549 cells, at 91.35 μM): 35.40 ± 13.36%
early apoptosis (%) (A549 cells): 11.22%
late apoptosis (%) (A549 cells): 4.97%
necrosis (%) (A549 cells): 0.79%

CCN(CC)c1ccc(C=NNC(=O)CSc2nc3cc(Cl)ccc3o2)cc1 [Compound 3b, N′-(4-Diethylaminobenzylidene)-2-[(5-chlorobenzoxazol-2-yl)thio]acetohydrazide]
IC50 ([1]; Homo sapiens, A549, mean ± SD): 410 ± 220 µM
IC50 [2]: > 500 µM
melting point: 172 to 173 °C

O=C(CSc1nc2cc(Cl)ccc2o1)NN=Cc1ccc(N(CCCl)CCCl)cc1 [Compound 3c, N′-[4-(Bis(2-chloroethyl)amino)benzylidene]-2-[(5-chlorobenzoxazol-2-yl)thio]acetohydrazide]
IC50 ([1]; Homo sapiens, A549, mean ± SD): > 500 µM
IC50 [2]: > 500 µM
melting point: 155 to 156 °C

O=C(CSc1nc2cc(Cl)ccc2o1)NN=Cc1ccc([N+](=O)[O-])cc1 [Compound 3d, N′-(4-Nitrobenzylidene)-2-[(5-chlorobenzoxazol-2-yl)thio]acetohydrazide]
IC50 ([1]; Homo sapiens, A549, mean ± SD): > 500 µM
IC50 [2]: > 500 µM
melting point: 237 to 239 °C

O=C(CSc1nc2cc(Cl)ccc2o1)NN=Cc1ccc(N2CCCCC2)cc1 [Compound 3e, N′-[4-(Piperidin-1-yl)benzylidene]-2-[(5-chlorobenzoxazol-2-yl)thio]acetohydrazide]
IC50 ([1]; Homo sapiens, A549, mean ± SD): 176 ± 56.5 µM
IC50 [2]: > 500 µM
IC50 (Akt): 106 ± 53.7 µM
early apoptosis (%) (A549 cells): 3.26%
late apoptosis (%) (A549 cells): 1.76%
necrosis (%) (A549 cells): 3.79%

O=C(CSc1nc2cc(Cl)ccc2o1)NN=Cc1ccc(N2CCOCC2)cc1 [Compound 3f, N′-[4-(Morpholin-4-yl)benzylidene]-2-[(5-chlorobenzoxazol-2-yl)thio]acetohydrazide]
IC50 ([1]; Homo sapiens, A549, mean ± SD): 251 ± 45.9 µM
IC50 [2]: > 500 µM
melting point: 209 to 210 °C

CN1CCN(c2ccc(C=NNC(=O)CSc3nc4cc(Cl)ccc4o3)cc2)CC1 [Compound 3g, N′-[4-(4-Methylpiperazin-1-yl)benzylidene]-2-[(5-chlorobenzoxazol-2-yl)thio]acetohydrazide]
IC50 ([1]; Homo sapiens, A549, mean ± SD): 46.6 ± 6.15 µM
IC50 [2]: 277 ± 28.9 µM
melting point: 178 to 179 °C
inhibitory effect on Akt (in words) (Akt; A549 cells, 11.65, 23.30 and 46.60 μM): did not exert any inhibitory effect
early apoptosis (%) (A549 cells): 7.13%
late apoptosis (%) (A549 cells): 12.17%
necrosis (%) (A549 cells): 0.78%

O=C(CSc1nc2cc(Cl)ccc2o1)NN=Cc1ccc(N2CCCC2)cc1 [Compound 3h, N′-[4-(Pyrrolidin-1-yl)benzylidene]-2-[(5-chlorobenzoxazol-2-yl)thio]acetohydrazide]
IC50 ([1]; Homo sapiens, A549, mean ± SD): > 500 µM
IC50 [2]: > 500 µM
melting point: 206 to 207 °C

O=C(CSc1nc2cc(Cl)ccc2o1)NN=Cc1ccc(-n2ccnc2)cc1 [Compound 3i, N′-[4-(1H-Imidazol-1-yl)benzylidene]-2-[(5-chlorobenzoxazol-2-yl)thio]acetohydrazide]
IC50 ([1]; Homo sapiens, A549, mean ± SD): 83.6 ± 7.3 µM
IC50 [2]: > 500 µM
melting point: 229 to 231 °C
IC50 (Akt): 69.5 ± 1.48 µM
early apoptosis (%) (A549 cells): 2.70%
late apoptosis (%) (A549 cells): 6.04%
necrosis (%) (A549 cells): 3.51%

O=C(CSc1nc2cc(Cl)ccc2o1)NN=Cc1ccc(-n2cncn2)cc1 [Compound 3j, N′-[4-(1H-1,2,4-Triazol-1-yl)benzylidene]-2-[(5-chlorobenzoxazol-2-yl)thio]acetohydrazide]
IC50 ([1]; Homo sapiens, A549, mean ± SD): > 500 µM
IC50 [2]: > 500 µM
melting point: 256 to 257 °C

CCn1c(-c2nonc2N)nc2c(C#CC(C)(C)O)ncc(OC[C@H]3CCCNC3)c21 [GSK690693, reference compound]
IC50 (Akt): 5.93 ± 1.2 µM

From article PMC10249096, “Design, Synthesis, and Evaluation of a New Series of Hydrazones as Small-Molecule Akt Inhibitors for NSCLC Therapy” (ACS Omega, 2023)
